# Data taken from patent US8309574B2, “Nuclear transfer promoter for Rac protein and method of screening the same” (Kowa Company, Ltd., priority 2004, dated 2012).
# Entries after “also recorded” stand apart in the source; their conditions may differ.
# Legend:
# [1] = system: Rac protein; assay: Nuclear transfer of GFP/Rac fusion protein in transformed HUVEC, observed by fluorescence microscopy; format: cell-based; conditions: HUVEC expressing GFP/Rac fusion protein; pitavastatin 1 μM, 15 hours stationary culture; GFP fluorescence, nuclei stained with Hoechst
# Procedure: The present inventors measured the behavior of Rac protein in HUVEC with an HMG-CoA reductase inhibitor, particularly pitavastatin. For this measurement, a gene encoding a Rac/fluorescence protein GFP fusion protein was introduced into HUVEC to prepare a transformed cell expressing a GFP/Rac fusion protein. This transformed cell was cultured, and the state of Rac distributed in the cell in the presence or absence of pitavastatin was examined by observing the fluorescence of GFP. A gene encoding the whole area of a Rac translation region was introduced into a predetermined position of a commercial plasmid pEGFP-C1 for preparation of a fusion protein consisting of GFP and a desired protein, to construct a plasmid comprising the GFP-Rac gene. After HUVECs were put to a 6-well plate and then cultured overnight in EGM-2 medium. Using Fugene 6, the plasmid construct DNA prepared above was added in an amount of 0.8 μg/well to the cells. The cells were further cultured for 21 hours in EGM-2 medium, and then the fluorescence of GFP was observed under a fluorescence microscope. Six hours after the culture of HUVECs to which the plasmid construct DNA had been added was initiated, pitavastatin was added to the cells to a final concentration of 1 μM. And then the cells were subjected to stationary culture for 15 hours, fixed onto a prepared slide and observed under a fluorescence microscope. […]
# [2] = system: vascular endothelial cells; conditions: cited from earlier work
smiles,measurement,setting,value
"O=C(O)C[C@H](O)C[C@H](O)/C=C/c1c(C2CC2)nc2ccccc2c1-c1ccc(F)cc1 [pitavastatin, (3R,5S,6E)-7-[2-cyclopropyl-4-(4-fluorophenyl)-3-quinolyl]-3,5-dihydroxy-6-heptenoic acid]",state of Rac distributed in the cell (transfer of GFP-Rac into the nucleus),[1],fluorescence of GFP was localized in a certain area of the cells; also recorded: GFP-Rac is transferred to a nucleus
same,expression of MCP-1,[2],suppresses
same,expression of NO synthase,[2],promotes
same,expression of PAI-1,[2],suppresses
same,expression of PTX3,[2],suppresses
same,expression of endothelin,[2],suppresses
same,expression of inflammatory cytokine IL-8,[2],suppresses
same,expression of thrombomodulin,[2],promotes
